In PubChem BioAssay AID1259407 (Chemical Carcinogenesis Research Information System (CCRIS), 2018) one finds mutagenic call data, which are given here for three compounds.

Activity calls are given as the source filed them. How the calls were made is not given here.

The data set has as its system CCRIS mutagenicity, Ames/micronucleus/aberration tests. The experiment in a line: CCRIS mutagenicity studies.
[1] abbreviates: Test System: AMES SALMONELLA TYPHIMURIUM, Strain/Indicator: TA98, Metabolic Activation: HAMSTER, LIVER, S-9, AROCLOR 1254 (10%), Method: PREINCUBATION
Setting [2] is: Test System: AMES SALMONELLA TYPHIMURIUM, Strain/Indicator: TA98, Metabolic Activation: NONE, Method: PREINCUBATION
Where [3] appears, read: Test System: AMES SALMONELLA TYPHIMURIUM, Strain/Indicator: TA98, Metabolic Activation: RAT, LIVER, S-9, AROCLOR 1254 (10%), Method: PREINCUBATION
Where [4] appears, read: Test System: AMES SALMONELLA TYPHIMURIUM, Strain/Indicator: TA100, Metabolic Activation: HAMSTER, LIVER, S-9, AROCLOR 1254 (10%), Method: PREINCUBATION
[5] abbreviates: Test System: AMES SALMONELLA TYPHIMURIUM, Strain/Indicator: TA100, Metabolic Activation: NONE, Method: PREINCUBATION
The mark [6] stands for this setting: Test System: AMES SALMONELLA TYPHIMURIUM, Strain/Indicator: TA100, Metabolic Activation: RAT, LIVER, S-9, AROCLOR 1254 (10%), Method: PREINCUBATION
Setting [7] is: Test System: AMES SALMONELLA TYPHIMURIUM, Strain/Indicator: TA1535, Metabolic Activation: HAMSTER, LIVER, S-9, AROCLOR 1254 (10%), Method: PREINCUBATION
Where [8] appears, read: Test System: AMES SALMONELLA TYPHIMURIUM, Strain/Indicator: TA1535, Metabolic Activation: NONE, Method: PREINCUBATION
Where [9] appears, read: Test System: AMES SALMONELLA TYPHIMURIUM, Strain/Indicator: TA1535, Metabolic Activation: RAT, LIVER, S-9, AROCLOR 1254 (10%), Method: PREINCUBATION
Setting [10] is: Test System: AMES SALMONELLA TYPHIMURIUM, Strain/Indicator: TA1537, Metabolic Activation: NONE, Method: PREINCUBATION
[11] abbreviates: Test System: AMES SALMONELLA TYPHIMURIUM, Strain/Indicator: TA98, Metabolic Activation: NONE, Method: STANDARD PLATE.
Where [12] appears, read: Test System: AMES SALMONELLA TYPHIMURIUM, Strain/Indicator: TA100, Metabolic Activation: NONE, Method: STANDARD PLATE.
[13] abbreviates: Test System: AMES SALMONELLA TYPHIMURIUM, Strain/Indicator: TA1535, Metabolic Activation: NONE, Method: STANDARD PLATE.
[14] abbreviates: Test System: AMES SALMONELLA TYPHIMURIUM, Strain/Indicator: TA1538, Metabolic Activation: NONE, Method: STANDARD PLATE.

With `CCCCCCCCCCCCCCCCCC[N+](C)(C)Cc1ccccc1`, the mutagenic call by setting is: (Test System: AMES SALMONELLA TYPHIMURIUM, Strain/Indicator: TA97, Metabolic Activation: HAMSTER, LIVER, S-9, AROCLOR 1254 (10%), Method: PREINCUBATION) “inactive; negative”; (Test System: AMES SALMONELLA TYPHIMURIUM, Strain/Indicator: TA97, Metabolic Activation: HAMSTER, LIVER, S-9, AROCLOR 1254 (30%), Method: PREINCUBATION) “inactive; negative”; (Test System: AMES SALMONELLA TYPHIMURIUM, Strain/Indicator: TA97, Metabolic Activation: NONE, Method: PREINCUBATION) “inactive; negative”; (Test System: AMES SALMONELLA TYPHIMURIUM, Strain/Indicator: TA97, Metabolic Activation: RAT, LIVER, S-9, AROCLOR 1254 (10%), Method: PREINCUBATION) “inactive; negative”; (Test System: AMES SALMONELLA TYPHIMURIUM, Strain/Indicator: TA97, Metabolic Activation: RAT, LIVER, S-9, AROCLOR 1254 (30%), Method: PREINCUBATION) “inactive; negative”; under setting [1], “inactive; negative”. Moreover, the mutagenic call is, setting by setting: (Test System: AMES SALMONELLA TYPHIMURIUM, Strain/Indicator: TA98, Metabolic Activation: HAMSTER, LIVER, S-9, AROCLOR 1254 (30%), Method: PREINCUBATION) “inactive; negative”; under setting [2], “inactive; negative”; under setting [3], “inactive; negative”; (Test System: AMES SALMONELLA TYPHIMURIUM, Strain/Indicator: TA98, Metabolic Activation: RAT, LIVER, S-9, AROCLOR 1254 (30%), Method: PREINCUBATION) “inactive; negative”; under setting [4], “inactive; negative”; (Test System: AMES SALMONELLA TYPHIMURIUM, Strain/Indicator: TA100, Metabolic Activation: HAMSTER, LIVER, S-9, AROCLOR 1254 (30%), Method: PREINCUBATION) “inactive; negative”. The mutagenic call under setting [5] was “inactive; negative”; the mutagenic call under setting [6] was “inactive; negative”; the mutagenic call (Test System: AMES SALMONELLA TYPHIMURIUM, Strain/Indicator: TA100, Metabolic Activation: RAT, LIVER, S-9, AROCLOR 1254 (30%), Method: PREINCUBATION) was “inactive; negative”; the mutagenic call under setting [7] is “inactive; negative”; the mutagenic call (Test System: AMES SALMONELLA TYPHIMURIUM, Strain/Indicator: TA1535, Metabolic Activation: HAMSTER, LIVER, S-9, AROCLOR 1254 (30%), Method: PREINCUBATION) was “inactive; negative”; the mutagenic call under setting [8] was “inactive; negative”. Moreover, the mutagenic call under setting [9] is “inactive; negative”; the mutagenic call (Test System: AMES SALMONELLA TYPHIMURIUM, Strain/Indicator: TA1535, Metabolic Activation: RAT, LIVER, S-9, AROCLOR 1254 (30%), Method: PREINCUBATION) was “inactive; negative”; the mutagenic call (Test System: AMES SALMONELLA TYPHIMURIUM, Strain/Indicator: TA1537, Metabolic Activation: HAMSTER, LIVER, S-9, AROCLOR 1254 (30%), Method: PREINCUBATION) was “inactive; negative”; the mutagenic call under setting [10] is “inactive; negative”; the mutagenic call (Test System: AMES SALMONELLA TYPHIMURIUM, Strain/Indicator: TA1537, Metabolic Activation: RAT, LIVER, S-9, AROCLOR 1254 (30%), Method: PREINCUBATION) is “inactive; negative”.
In the case of `Cn1c2ccccc2c(=O)c2c(O)cc3c(c21)CC(C(C)(O)CCl)O3` (stereo not drawn), the mutagenic call is, setting by setting: under setting [11], “active; positive”; (Test System: AMES SALMONELLA TYPHIMURIUM, Strain/Indicator: TA98, Metabolic Activation: RAT, LIVER, S-9, PHENOBARBITAL, Method: STANDARD PLATE) “active; positive”; under setting [12], “active; positive”; (Test System: AMES SALMONELLA TYPHIMURIUM, Strain/Indicator: TA100, Metabolic Activation: RAT, LIVER, S-9, PHENOBARBITAL, Method: STANDARD PLATE) “active; positive”; under setting [13], “inactive; negative”; (Test System: AMES SALMONELLA TYPHIMURIUM, Strain/Indicator: TA1535, Metabolic Activation: RAT, LIVER, S-9, PHENOBARBITAL, Method: STANDARD PLATE) “inactive; negative”. Also, the mutagenic call was “active; positive” under setting [14]; “active; positive” (Test System: AMES SALMONELLA TYPHIMURIUM, Strain/Indicator: TA1538, Metabolic Activation: RAT, LIVER, S-9, PHENOBARBITAL, Method: STANDARD PLATE); “active; positive” (Test System: AMES SALMONELLA TYPHIMURIUM, Strain/Indicator: TA1978, Metabolic Activation: NONE, Method: STANDARD PLATE); “inactive; negative” (Test System: AMES SALMONELLA TYPHIMURIUM, Strain/Indicator: TA1978, Metabolic Activation: RAT, LIVER, S-9, PHENOBARBITAL, Method: STANDARD PLATE).
Take `NCCNCCNCCN`: the mutagenic call is, setting by setting: under setting [1], “active; positive”; under setting [2], “active; positive”; under setting [11], “active; positive”; under setting [3], “active; positive”; (Test System: AMES SALMONELLA TYPHIMURIUM, Strain/Indicator: TA98, Metabolic Activation: RAT, LIVER, S-9, PCB, Method: PREINCUBATION) “active; positive”; under setting [4], “active; positive”. For the same compound, the mutagenic call by setting is: under setting [5], “active; positive”; under setting [12], “active; positive”; under setting [6], “active; positive”; (Test System: AMES SALMONELLA TYPHIMURIUM, Strain/Indicator: TA100, Metabolic Activation: RAT, LIVER, S-9, PCB, Method: PREINCUBATION) “active; positive”; under setting [7], “active; positive”; under setting [8], “active; positive”. Also, the mutagenic call reads like this: under setting [13], “inactive; negative”; under setting [9], “active; positive”; (Test System: AMES SALMONELLA TYPHIMURIUM, Strain/Indicator: TA1535, Metabolic Activation: RAT, LIVER, S-9, AROCLOR 1254, Method: STANDARD PLATE) “active; positive”; (Test System: AMES SALMONELLA TYPHIMURIUM, Strain/Indicator: TA1537, Metabolic Activation: HAMSTER, LIVER, S-9, AROCLOR 1254 (10%), Method: PREINCUBATION) “active; positive”; under setting [10], “active; positive”; (Test System: AMES SALMONELLA TYPHIMURIUM, Strain/Indicator: TA1537, Metabolic Activation: NONE, Method: STANDARD PLATE) “active; positive”. Also, the mutagenic call is “active; positive” (Test System: AMES SALMONELLA TYPHIMURIUM, Strain/Indicator: TA1537, Metabolic Activation: RAT, LIVER, S-9, AROCLOR 1254 (10%), Method: PREINCUBATION); “inactive; negative” (Test System: AMES SALMONELLA TYPHIMURIUM, Strain/Indicator: TA1537, Metabolic Activation: RAT, LIVER, S-9, AROCLOR 1254, Method: STANDARD PLATE); “active; positive” under setting [14]; “inactive; negative” (Test System: AMES SALMONELLA TYPHIMURIUM, Strain/Indicator: TA1538, Metabolic Activation: RAT, LIVER, S-9, AROCLOR 1254, Method: STANDARD PLATE); “inactive; negative” (Test System: CHINESE HAMSTER OVARY, Strain/Indicator: CHO (HGPRT)/6-THIOGUANINE, Metabolic Activation: NONE); “inactive; negative” (Test System: CHINESE HAMSTER OVARY, Strain/Indicator: CHO (HGPRT)/6-THIOGUANINE, Metabolic Activation: RAT, LIVER, S-9, AROCLOR 1254). For the same compound, the mutagenic call (Test System: UDS RAT HEPATOCYTES, Strain/Indicator: THY INCORP, Metabolic Activation: NONE, Method: SCINTILLATION SPECTROMETRY) is “active; positive”.
